Data on one substance can be found in US20150139901A1, “Radioactive Rhodium Complexes, Preparation Methods and Uses Thereof” (Institut National de la Sante et de la Recherche Medicale …, priority 2012, published 2015).

The nature of the data set: Stability test in human serum (15 h incubation, TLC control of supernatant). Format: in vitro ADME. To be noted: controlled by TLC. As to the method:
The compound of Example 4 (7.5-10.5 MBq) was prepared according to the previously described procedure. The resulting organic solution was evaporated until the final volume was about 50 μL. The complex was purified by silica gel chromatography using DCM/MeOH (99/1) as mobile phase. Activity was counted for each 500 μL aliquots and fractions of interest were concentrated under nitrogen flux. One ml of human serum was then added. The solution was gently stirred and divided into two aliquots incubated 15 h. respectively at 4° C. and 37° C. Then, serum proteins were precipitated by adding 750 μl of organic solvents mixture (ACN/DCM 100/1). Supernatant was separated by centrifugation at 4000 rpm and controlled by TLC.

In the case of “(^211At)(1-benzyl-3-(4-nitrophenyl)imidazolidene)(cyclooctadiene) rhodium(+I) [Example 4]”, the “degradation in human serum” value (incubated 15 h, result sentence prints 30° C. (method: 37° C.)) was “No degradation” and the “degradation in human serum” value (incubated 15 h at 4° C.) was “No degradation”.
